Results: ChEMBL document CHEMBL1201862, “PubChem BioAssay data set” (2004)
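Growth conditions: 96-well plates. Treatment: test compound, 48 hours, 5 concentrations. Analysis: linear interpolation between bracketing concentrations; unreached endpoints set to highest concentration. Here, GI50 denotes the concentration required for 50% inhibition of growth.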 Active and inactive are the calls of the source. Rule as the data show it: active = GI50 up to about 1.1 µM and inactive = higher.

How the values were obtained:
Assay in all cases: DTP human tumour cell line panel, 48 h
786-0 = test system: 786-0
A498 = test system: A498
CCRF-CEM = test system: CCRF-CEM
HCT-15 = test system: HCT-15
HT-29 = test system: HT-29
IGROV-1 = test system: IGROV-1
M14 = test system: M14
MDA-MB-231 = test system: MDA-MB-231
Malme-3M = test system: Malme-3M
OVCAR-8 = test system: OVCAR-8
RXF 393 = test system: RXF 393
SK-OV-3 = test system: SK-OV-3
SN12C = test system: SN12C
TK-10 = test system: TK-10
U-251 = test system: U-251
UO-31 = test system: UO-31
OVCAR-3 = test system: OVCAR-3
OVCAR-4 = test system: OVCAR-4
MDA-MB-435 = test system: MDA-MB-435

SMILES	GI50 (786-0)	GI50 (A498)	GI50 (CCRF-CEM)	GI50 (HCT-15)	GI50 (HT-29)	GI50 (IGROV-1)	GI50 (M14)	GI50 (MDA-MB-231)	GI50 (Malme-3M)	GI50 (OVCAR-8)	GI50 (RXF 393)	GI50 (SK-OV-3)	GI50 (SN12C)	GI50 (TK-10)	GI50 (U-251)	GI50 (UO-31)	GI50 (OVCAR-3)	GI50 (OVCAR-4)	GI50 (MDA-MB-435)
CCN(CCN(CC)C(=O)NC)C(=O)NC	> 100 µM (inactive)	> 100 µM (inactive)	> 100 µM (inactive)	> 100 µM	> 100 µM (inactive)	> 100 µM (inactive)	> 100 µM (inactive)	> 100 µM (inactive)	> 100 µM (inactive)	> 100 µM (inactive)	> 100 µM (inactive)	> 100 µM (inactive)	> 100 µM (inactive)	> 100 µM (inactive)	> 100 µM (inactive)	> 100 µM (inactive)			
C=C(C)CCOC(c1ccccc1)(c1ccccc1)c1ccccc1	> 100 µM (inactive)		61.4 µM (inactive)	47.3 µM	22.3 µM (inactive)	> 100 µM (inactive)	32.8 µM (inactive)		28.4 µM (inactive)	73.5 µM (inactive)	18.5 µM (inactive)	> 100 µM (inactive)	69 µM (inactive)	83.4 µM (inactive)	50 µM (inactive)	27.7 µM (inactive)	64.4 µM (inactive)	34.7 µM (inactive)	
O=C1N=C(Nc2ccccc2Cl)N/C1=C\c1ccc(Cl)cc1Cl	68.2 µM (inactive)	33.1 µM (inactive)	29.5 µM (inactive)	39.5 µM	> 100 µM (inactive)	79.4 µM (inactive)	72.6 µM (inactive)		53.6 µM (inactive)	38.3 µM (inactive)	15.5 µM (inactive)	> 100 µM (inactive)	25 µM (inactive)	> 100 µM (inactive)	33.9 µM (inactive)	> 100 µM (inactive)	66.1 µM (inactive)	44.3 µM (inactive)	5.96 µM (inactive)
C/C=C1\CN(C(=O)OC(C)(C)C)C1C(=O)OC(C)(C)C (centres undefined)	> 100 µM (inactive)	> 100 µM (inactive)	> 100 µM (inactive)	> 100 µM	> 100 µM (inactive)	> 100 µM (inactive)	> 100 µM (inactive)		> 100 µM (inactive)	> 100 µM (inactive)		> 100 µM (inactive)	> 100 µM (inactive)	> 100 µM (inactive)		63.7 µM (inactive)	94 µM (inactive)	53.6 µM (inactive)	> 100 µM (inactive)
NCCc1ccc2c(c1)C(=O)c1c(O)ccc(O)c1C2=O	2.2 µM (inactive)	> 58.1 µM (inactive)	3.36 µM (inactive)	4.51 µM		3.4 µM (inactive)	3.08 µM (inactive)	4.51 µM (inactive)	1.87 µM (inactive)	2.04 µM (inactive)	> 21.6 µM (inactive)	5.86 µM (inactive)	2.51 µM (inactive)	> 100 µM (inactive)	3.64 µM (inactive)	4.65 µM (inactive)	1.69 µM (inactive)		
Cc1cc(C)c(N[S+]([O-])c2cccc([N+](=O)[O-])c2)c(C)c1 (centres undefined)	> 100 µM (inactive)	> 100 µM (inactive)	> 100 µM (inactive)	> 100 µM	> 100 µM (inactive)		> 100 µM (inactive)		> 100 µM (inactive)	> 100 µM (inactive)	> 100 µM (inactive)		> 100 µM (inactive)	> 100 µM (inactive)	> 100 µM (inactive)	> 100 µM (inactive)	> 100 µM (inactive)		> 100 µM (inactive)
Oc1ccc(-c2csc(N/N=C3\NC/C(=C/c4ccc5c(c4)OCO5)S3)n2)cc1O	30.6 µM (inactive)			19.1 µM	38.5 µM (inactive)	20.6 µM (inactive)	11.2 µM (inactive)	55.8 µM (inactive)		29.2 µM (inactive)		> 100 µM (inactive)	33.5 µM (inactive)	21.7 µM (inactive)	22.1 µM (inactive)	11.2 µM (inactive)		32.9 µM (inactive)	3.21 µM (inactive)
C#CCOCn1cc(C)c(=O)[nH]c1=O	> 100 µM (inactive)	> 100 µM (inactive)	> 100 µM (inactive)	> 100 µM	> 100 µM (inactive)	> 100 µM (inactive)	> 100 µM (inactive)	> 100 µM (inactive)	> 100 µM (inactive)	> 100 µM (inactive)		> 100 µM (inactive)	> 100 µM (inactive)	> 100 µM (inactive)	> 100 µM (inactive)	> 100 µM (inactive)			
C#CCCCC(=C)C[C@@H]1OC(=O)[C@H](C)[C@@H]1O	> 100 µM (inactive)	> 100 µM (inactive)	> 100 µM (inactive)	> 100 µM			> 100 µM (inactive)				> 100 µM (inactive)	> 100 µM (inactive)	> 100 µM (inactive)		> 100 µM (inactive)	> 100 µM (inactive)	> 100 µM (inactive)	> 100 µM (inactive)	> 100 µM (inactive)
O=c1c(O)c(-c2ccc(O)cc2O)oc2cc(O)cc(O)c12 [MORIN]	> 100 µM (inactive)		> 100 µM (inactive)	> 100 µM	> 100 µM (inactive)	> 100 µM (inactive)	> 100 µM (inactive)	> 100 µM (inactive)	> 100 µM (inactive)	> 100 µM (inactive)			> 100 µM (inactive)	33.4 µM (inactive)	> 100 µM (inactive)	> 100 µM (inactive)	> 100 µM (inactive)	> 100 µM (inactive)	> 100 µM (inactive)
CC(=O)Nc1ccc(S(=O)(=O)NN(C)S(=O)(=O)c2ccc(C)cc2)cc1	> 100 µM (inactive)	> 100 µM (inactive)	> 100 µM (inactive)		> 100 µM (inactive)	> 100 µM (inactive)	> 100 µM (inactive)		> 100 µM (inactive)	> 100 µM (inactive)	> 100 µM (inactive)	> 100 µM (inactive)	> 100 µM (inactive)	> 100 µM (inactive)		> 100 µM (inactive)	> 100 µM (inactive)	> 100 µM (inactive)	
Cc1cccc(Nc2cn(COCc3ccccc3)c(=O)[nH]c2=O)c1	> 100 µM (inactive)	> 100 µM (inactive)	> 100 µM (inactive)	> 100 µM	64.6 µM (inactive)	29.4 µM (inactive)	> 100 µM (inactive)				56 µM (inactive)		> 100 µM (inactive)		> 100 µM (inactive)	> 100 µM (inactive)	> 100 µM (inactive)	41.5 µM (inactive)	> 100 µM (inactive)
Cc1ccc(C)c(NC(=O)CC/C(=N\NC(=O)C(N)=O)C(C)C(=O)c2ccc(O)cc2)c1 (centres undefined)	> 100 µM (inactive)		> 100 µM (inactive)	> 100 µM	> 100 µM (inactive)	> 100 µM (inactive)	> 100 µM (inactive)		> 100 µM (inactive)	> 100 µM (inactive)	61.1 µM (inactive)	> 100 µM (inactive)	> 100 µM (inactive)		> 100 µM (inactive)	> 100 µM (inactive)	> 100 µM (inactive)	> 100 µM (inactive)	
